Results as given in patent publication US20230303497A1, “BENZYLAMINE OR BENZYL ALCOHOL DERIVATIVE AND USES THEREOF” (CHENGDU HYPERWAY PHARMACEUTICALS CO., LTD, priority 2020, published 2023).
Read-outs that look alike come from different tables or passages of the source. Values belong to the compound of their own block, whether it stands above or below them.

Molecular target: human NaV1.8 ion channel (Homo sapiens (Human), UniProt Q9Y5Y9)
Experiment: Compound inhibition activity on human NaV1.8 ion channel in HEK293 cells (whole-cell patch clamp)
Format: cell-based
Method: Test Case 1: Compound Inhibition Activity on Human NaV1.8 Ion Channel in HEK293 Cells
The final concentrations of the test compounds are prepared on the same day and then dissolved in extracellular solution. […] The intracellular solution (mM) contains: Aspartic acid, 140; MgCl2, 2; EGTA 11; HEPES, 10; pH 7.2 (CsOH titration). All test solutions contain 1 μM TTX.
The test solution are stored at a concentration of 3 mM in dimethyl sulfoxide (DMSO). The solutions will be dissolved in extracellular solution on the day of testing and prepared to the required concentration.
All experiments were performed at room temperature. Each cell itself is taken as the corresponding control.
At least one cell is tested per concentration.
HEK293 cell steady expressing NaV1.8 ion channel.
The intracellular fluid (mM) contains: Aspartic acid, 140; MgCl2, 2; EGTA 11; HEPES, 10; pH 7.2 (CsOH titration). […] Electrodes are drawn with PC-10 (Narishige, Japan). Recording is performed with whole-cell diaphragm clamp.
The cells are clamped at −80 mV and then depolarized to 10 mV with a sustained 10 ms square wave to give a Nav1.8 current. This procedure is repeated every 5 seconds.

[1] = 100 nm concentration, HEK293 cells, resting protocol, read-out: Inhibition ratio of Nav1.8 (Activity of inhibition)
[2] = 100 nm concentration, HEK293 cells, resting protocol

human NaV1.8 ion channel, sequence (Q9Y5Y9 whole entry): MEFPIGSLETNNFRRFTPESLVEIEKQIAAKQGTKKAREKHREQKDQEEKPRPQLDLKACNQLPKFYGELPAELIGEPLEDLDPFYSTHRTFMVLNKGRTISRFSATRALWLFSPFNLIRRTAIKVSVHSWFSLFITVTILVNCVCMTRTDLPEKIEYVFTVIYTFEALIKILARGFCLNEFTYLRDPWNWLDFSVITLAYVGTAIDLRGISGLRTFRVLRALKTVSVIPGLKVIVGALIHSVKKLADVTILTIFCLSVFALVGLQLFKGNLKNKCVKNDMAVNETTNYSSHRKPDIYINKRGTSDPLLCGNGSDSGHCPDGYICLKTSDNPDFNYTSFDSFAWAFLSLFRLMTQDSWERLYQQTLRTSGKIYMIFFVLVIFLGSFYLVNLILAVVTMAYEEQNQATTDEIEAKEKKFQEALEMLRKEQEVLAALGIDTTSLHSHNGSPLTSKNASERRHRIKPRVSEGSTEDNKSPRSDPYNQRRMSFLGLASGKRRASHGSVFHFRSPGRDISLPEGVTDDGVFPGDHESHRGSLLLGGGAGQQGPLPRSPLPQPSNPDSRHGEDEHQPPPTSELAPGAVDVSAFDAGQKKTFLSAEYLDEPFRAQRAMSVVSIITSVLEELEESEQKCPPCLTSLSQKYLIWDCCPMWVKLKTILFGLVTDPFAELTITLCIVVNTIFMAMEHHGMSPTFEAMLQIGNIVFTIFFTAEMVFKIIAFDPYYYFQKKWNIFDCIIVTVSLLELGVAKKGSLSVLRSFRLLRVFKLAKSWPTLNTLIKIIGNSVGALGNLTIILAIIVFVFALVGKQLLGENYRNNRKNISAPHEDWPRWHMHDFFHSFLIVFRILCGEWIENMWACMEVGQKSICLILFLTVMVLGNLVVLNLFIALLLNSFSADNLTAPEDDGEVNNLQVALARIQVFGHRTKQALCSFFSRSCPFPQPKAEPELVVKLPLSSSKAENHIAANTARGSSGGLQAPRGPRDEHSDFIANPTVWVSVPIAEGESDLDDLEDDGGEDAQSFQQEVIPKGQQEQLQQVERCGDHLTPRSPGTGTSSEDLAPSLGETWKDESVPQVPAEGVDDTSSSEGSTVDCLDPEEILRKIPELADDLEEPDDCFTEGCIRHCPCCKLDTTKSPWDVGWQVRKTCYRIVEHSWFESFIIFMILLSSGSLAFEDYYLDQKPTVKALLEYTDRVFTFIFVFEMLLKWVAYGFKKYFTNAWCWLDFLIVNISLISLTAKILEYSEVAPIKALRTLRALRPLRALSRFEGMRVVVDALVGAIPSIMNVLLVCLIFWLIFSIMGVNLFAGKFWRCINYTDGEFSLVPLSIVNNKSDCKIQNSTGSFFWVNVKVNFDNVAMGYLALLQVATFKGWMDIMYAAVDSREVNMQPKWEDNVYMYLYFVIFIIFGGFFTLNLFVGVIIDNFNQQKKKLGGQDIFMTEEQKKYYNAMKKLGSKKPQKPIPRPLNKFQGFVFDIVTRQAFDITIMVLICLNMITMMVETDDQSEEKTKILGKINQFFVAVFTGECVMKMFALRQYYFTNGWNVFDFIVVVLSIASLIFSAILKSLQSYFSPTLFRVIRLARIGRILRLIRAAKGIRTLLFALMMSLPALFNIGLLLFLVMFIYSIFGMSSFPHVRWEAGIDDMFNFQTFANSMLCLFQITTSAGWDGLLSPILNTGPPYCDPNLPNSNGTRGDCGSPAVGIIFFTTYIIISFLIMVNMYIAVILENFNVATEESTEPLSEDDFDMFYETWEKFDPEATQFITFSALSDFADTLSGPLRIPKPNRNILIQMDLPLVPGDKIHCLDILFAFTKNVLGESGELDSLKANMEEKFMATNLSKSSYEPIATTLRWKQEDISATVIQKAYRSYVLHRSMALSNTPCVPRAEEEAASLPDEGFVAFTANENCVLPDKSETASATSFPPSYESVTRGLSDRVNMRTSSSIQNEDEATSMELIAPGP

Compound: Cc1cc(F)ccc1Oc1cc(C2CC2)c(C(F)(F)F)cc1C(=O)Nc1ccc(F)c(C(N)CCO)c1 (centres unmarked) [Example 3, N-(3-(1-Amino-3-hydroxypropyl)-4-fluorophenyl)-4-cyclopropyl-2-(4-fluoro-2-methylphenoxy)-5-(trifluoromethyl) benzamide]
- Inhibition ratio of Nav1.8 (Activity of inhibition) [2]: A (A >= 80)

Compound: Cc1cc(F)ccc1Oc1ccc(C(F)(F)F)cc1C(=O)Nc1ccc(F)c(C(N)C(C)C(N)=O)c1 (centres unmarked) [Example 4, N-(3-(1,3-Diamino-2-methyl-3-oxopropyl)-4-fluorophenyl)-2-(4-fluoro-2-methylphenoxy)-5-(trifluoromethyl) benzamide]
- inhibition at 0.1 µM (HEK293, read-out: Inhibition ratio of Nav1.8 (Activity of inhibition)): 50 to 80%

Compound: CC(=O)NC(CCO)c1cc(NC(=O)c2cc(C(F)(F)F)c(C3CC3)cc2Oc2ccc(F)cc2C)ccc1F (centres unmarked) [Example 6, N-(3-(1-Acetylamino-3-hydroxypropyl)-4-fluorophenyl)-4-cyclopropyl-2-(4-fluoro-2-methylphenoxy)-5-(trifluoromethyl) benzamide]
- inhibition at 0.1 µM [1]: 50 to 80%

Compound: CNC(CCO)c1cc(NC(=O)c2cc(C(F)(F)F)c(C3CC3)cc2Oc2ccc(F)cc2C)ccc1F (centres unmarked) [Example 7, 4-Cyclopropyl-2-(4-fluoro-2-methylphenoxy)-N-(4-fluoro-3-(3-hydroxy-1-(methylamino)propyl)phenyl)-5-(trifluoromethyl) benzamide]
- inhibition at 0.1 µM [1]: > 80%

Compound: Cc1cc(F)ccc1Oc1cc(C2CC2)c(C(F)(F)F)cc1C(=O)Nc1ccc(F)c(C(CCO)N(C)C)c1 (centres unmarked) [Example 8, 4-Cyclopropyl-N-(3-(1-(dimethylamino)-3-hydroxypropyl)-4-fluorophenyl)-2-(4-fluoro-2-methylphenoxy)-5-(trifluoromethyl) benzamide]
- inhibition at 0.1 µM [1]: > 80%

Compound: CNC(C(N)=O)c1cc(NC(=O)c2cc(C(F)(F)F)c(C3CC3)cc2Oc2ccc(F)cc2C)ccc1F (centres unmarked) [Example 10, N-(3-(2-amino-1-(methylamino)-2-oxoethyl)-4-fluorophenyl)-4-cyclopropyl-2-(4-fluoro-2-methylphenoxy)-5-(trifluoromethyl) benzamide]
- inhibition at 0.1 µM [1]: > 80%

Compound: Cc1cc(F)ccc1Oc1ccc(C(F)(F)F)cc1C(=O)Nc1ccc(F)c(C2CCCN2)c1 (centres unmarked) [Example 15, 2-(4-fluoro-2-methylphenoxy)-N-(4-fluoro-3-(pyrrolidin-2-yl)phenyl)-5-(trifluoromethyl) benzamide]
- Inhibition ratio of Nav1.8 (Activity of inhibition) [2]: C (50 >C >= 20)

Compound: Cc1cc(F)ccc1Oc1ccc(C(F)(F)F)cc1C(=O)Nc1ccc(F)c(CC(N)C(N)=O)c1 (centres unmarked) [Example 17, N-(3-(2,3-Diamino-3-oxopropyl)-4-fluorophenyl)-2-(4-fluoro-2-methylphenoxy)-5-(trifluoromethyl) benzamide]
- Inhibition ratio of Nav1.8 (Activity of inhibition) [2]: D (D < 20)

Compound: Cc1cc(F)ccc1Oc1cc(C2CC2)c(C(F)(F)F)cc1C(=O)Nc1ccc(F)c(C(N)C2CCNC2=O)c1 (centres unmarked) [Example 19, N-(3-(amino (2-oxopyrrolidin-3-yl)methyl)-4-fluorophenyl)-4-cyclopropyl-2-(4-fluoro-2-methylphenoxy)-5-(trifluoromethyl) benzamide]
- inhibition at 0.1 µM [1]: > 80%

Compound: Cc1cc(F)ccc1Oc1cc(C2CC2)c(C(F)(F)F)cc1C(=O)Nc1ccc(F)c(C(N)C(F)CO)c1 (centres unmarked) [Example 22, N-(3-(1-Amino-2-fluoro-3-hydroxypropyl)-4-fluorophenyl)-4-cyclopropyl-2-(4-fluoro-2-methylphenoxy)-5-(trifluoromethyl) benzamide]
- inhibition at 0.1 µM [1]: > 80%

Compound: Cc1cc(F)ccc1Oc1cc(C2CC2)c(C(F)(F)F)cc1C(=O)Nc1ccc(F)c(C(C)CCO)c1 (centres unmarked) [Example 28, 4-cyclopropyl-2-(4-fluoro-2-methylphenoxy)-N-(4-fluoro-3-(4-hydroxybutan-2-yl)phenyl)-5-(trifluoromethyl) benzamide]
- inhibition at 0.1 µM [1]: 20 to 50%

Compound: Cc1cc(F)ccc1Oc1cc(C2CC2)c(C(F)(F)F)cc1C(=O)Nc1ccc(F)c(C(C)CCN)c1 (centres unmarked) [Example 29, N-(3-(4-Aminobutan-2-yl)-4-fluorophenyl)-4-cyclopropyl-2-(4-fluoro-2-methylphenoxy)-5-(trifluoromethyl) benzamide]
- inhibition at 0.1 µM [1]: 50 to 80%

Compound: Cc1cc(F)ccc1Oc1cc(C2CC2)c(C(F)(F)F)cc1C(=O)Nc1ccc(F)c(C(C)CN)c1 (centres unmarked) [Example 30, N-(3-(1-aminopropyl-2-yl)-4-fluorophenyl)-4-cyclopropyl-2-(4-fluoro-2-methylphenoxy)-5-(trifluoromethyl) benzamide]
- inhibition at 0.1 µM [1]: 50 to 80%

Compound: Cc1cc(F)ccc1Oc1cc(C2CC2)c(C(F)(F)F)cc1C(=O)Nc1ccc(F)c(C(F)CCO)c1 (centres unmarked) [Example 31, 4-Cyclopropyl-2-(4-fluoro-2-methylphenoxy)-N-(4-fluoro-3-(1-fluoro-3-hydroxypropyl)phenyl)-5-(trifluoromethyl) benzamide]
- inhibition at 0.1 µM [1]: 50 to 80%

Compound: Cc1cc(F)ccc1Oc1cc(C2CC2)c(C(F)(F)F)cc1C(=O)Nc1ccc(F)c(C(F)(F)CCO)c1 [Example 32, 4-Cyclopropyl-N-(3-(1,1-difluoro-3-hydroxypropyl)-4-fluorophenyl)-2-(4-fluoro-2-methylphenoxy)-5-(trifluoromethyl) benzamide]
- inhibition at 0.1 µM [1]: 20 to 50%

Second part, the compound after the results:

- inhibition at 0.1 µM [1]: < 20%
Compound: Cc1cc(F)ccc1Oc1ccc(C(F)(F)F)cc1C(=O)Nc1ccc(F)c(C(N)CC(=O)O)c1 (centres unmarked) [Example 2, 3-Amino-3-(2-fluoro-5-(2-(4-fluoro-2-methylphenoxy)-5-(trifluoromethyl)benzamido)phenyl) propanoic acid]

- inhibition at 0.1 µM [1]: 50 to 80%
Compound: COCCC(N)c1cc(NC(=O)c2cc(C(F)(F)F)c(C3CC3)cc2Oc2ccc(F)cc2C)ccc1F (centres unmarked) [Example 5, N-(3-(1-Amino-3-methoxypropyl)-4-fluorophenyl)-4-cyclopropyl-2-(4-fluoro-2-methylphenoxy)-5-(trifluoromethyl) benzamide]

- inhibition at 0.1 µM [1]: > 80%
Compound: Cc1cc(F)ccc1Oc1cc(C2CC2)c(C(F)(F)F)cc1C(=O)Nc1ccc(F)c(C(N)C(N)=O)c1 (centres unmarked) [Example 9, 4-Cyclopropyl-N-(3-(1,2-diamino-2-oxoethyl)-4-fluorophenyl)-2-(4-fluoro-2-methylphenoxy)-5-(trifluoromethyl) benzamide]

- inhibition at 0.1 µM [1]: > 80%
Compound: Cc1cc(F)ccc1Oc1cc(C2CC2)c(C(F)(F)F)cc1C(=O)Nc1ccc(F)c(C(N)CO)c1 (centres unmarked) [Example 11, N-(3-(1-Amino-2-hydroxyethyl)-4-fluorophenyl)-4-cyclopropyl-2-(4-fluoro-2-methylphenoxy)-5-(trifluoromethyl) benzamide]

- inhibition at 0.1 µM [1]: 50 to 80%
Compound: Cc1cc(F)ccc1Oc1ccc(C(F)(F)F)cc1C(=O)Nc1ccc(F)c(CN)c1 [Example 12, N-(3-(Aminomethyl)-4-fluorophenyl)-2-(4-fluoro-2-methylphenoxy)-5-(trifluoromethyl) benzamide]

- inhibition at 0.1 µM [1]: 20 to 50%
Compound: Cc1cc(F)ccc1Oc1ccc(C(F)(F)F)cc1C(=O)Nc1ccc(F)c(CNCC(N)=O)c1 [Example 13]

- inhibition at 0.1 µM [1]: 50 to 80%
Compound: Cc1cc(F)ccc1Oc1ccc(C(F)(F)F)cc1C(=O)Nc1ccc(F)c(C(C)N)c1 (centres unmarked) [Example 14, N-(3-(1-aminoethyl)-4-fluorophenyl)-2-(4-fluoro-2-methylphenoxy)-5-(trifluoromethyl) benzamide]

- Inhibition ratio of Nav1.8 (Activity of inhibition) [2]: D (D < 20)
Compound: Cc1cc(F)ccc1Oc1ccc(C(F)(F)F)cc1C(=O)Nc1ccc(F)c(C2CCC(C(N)=O)N2)c1 (centres unmarked) [Example 16, 5-(2-fluoro-5-(2-(4-fluoro-2-methylphenoxy)-5-(trifluoromethyl)benzamido)phenyl) pyrrolidine-2-carboxacylamino]

- inhibition at 0.1 µM [1]: < 20%
Compound: Cc1cc(F)ccc1Oc1ccc(C(F)(F)F)cc1C(=O)Nc1ccc(F)c(C2NCCNC2=O)c1 (centres unmarked) [Example 18, 2-(4-Fluoro-2-methylphenoxy)-N-(4-fluoro-3-(3-oxopiperazin-2-yl)phenyl)-5-(trifluoromethyl) benzamide]

- inhibition at 0.1 µM [1]: 50 to 80%
Compound: Cc1cc(F)ccc1Oc1cc(C2CC2)c(C(F)(F)F)cc1C(=O)Nc1ccc(F)c(C(N)CC(C)O)c1 (centres unmarked) [Example 20, N-(3-(1-Amino-3-hydroxybutyl)-4-fluorophenyl)-4-cyclopropyl-2-(4-fluoro-2-methylphenoxy)-5-(trifluoromethyl) benzamide]

- inhibition at 0.1 µM [1]: > 80%
Compound: Cc1cc(F)ccc1Oc1cc(C2CC2)c(C(F)(F)F)cc1C(=O)Nc1ccc(F)c(C(N)CCN)c1 (centres unmarked) [Example 24, 4-Cyclopropyl-N-(3-(1,3-diaminopropyl)-4-fluorophenyl)-2-(4-fluoro-2-methylphenoxy)-5-(trifluoromethyl) benzamide]

- inhibition at 0.1 µM [1]: 20 to 50%
Compound: Cc1cc(F)ccc1Oc1ccc(C(F)(F)F)cc1C(=O)Nc1ccc(F)c(C(O)C2CCNC2=O)c1 (centres unmarked) [Example 25, 2-(4-fluoro-2-methylphenoxy)-N-(4-fluoro-3-(hydroxyl (2-oxopyrrolidin-3-yl)methyl)phenyl)-5-(trifluoromethyl) benzamide]

- inhibition at 0.1 µM [1]: 20 to 50%
Compound: Cc1cc(F)ccc1Oc1ccc(C(F)(F)F)cc1C(=O)Nc1ccc(F)c(C(O)C(N)=O)c1 (centres unmarked) [Example 26, N-(3-(2-Amino-1-hydroxy-2-oxoethyl)-4-fluorophenyl)-2-(4-fluoro-2-methylphenoxy)-5-(trifluoromethyl) benzamide]

- inhibition at 0.1 µM [1]: > 80%
Compound: Cc1cc(F)ccc1Oc1ccc(C(F)(F)F)cc1C(=O)Nc1ccc(F)c(C(C)C(N)=O)c1 (centres unmarked) [Example 27, N-(3-(1-Amino-1-oxopropan-2-yl)-4-fluorophenyl)-2-(4-fluoro-2-methylphenoxy)-5-(trifluoromethyl) benzamide]
